# Reference: patent US20260125382A1, “COMPOUNDS FOR INHIBITING OR DEGRADING CDK2 AND/OR CDK9 AND MEDICINAL USE THEREOF” (KOREA RESEARCH INSTITUTE OF CHEMICAL TECHNOLOGY, priority 2022, published 2026)
# What was measured:
# CDK9 = target: T1, CDK9 (Homo sapiens, UniProt P50750); experiment: CDK protein degradation activity (Western blotting), CDK9; type: cell-based; conditions: MDA-MB-231 cells, 16 hours, Western blot
# T1 construct: endogenous in cells; host or cells: MDA-MB-231
# Outline: (§1)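 Protein levels were read by Western blot densitometry, tubulin serving as loading reference. Beforehand, MDA-MB-231 cells had been exposed for 16 hours to 100 nM, 1 μM or 10 μM compound, DMSO as control.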
# CDK2 = target: T2, CDK2 (Homo sapiens, UniProt P24941); experiment: CDK protein degradation activity (Western blotting), CDK2; type: cell-based; conditions: MDA-MB-231 cells, 16 hours, Western blot
# T2 construct: endogenous in cells; host or cells: MDA-MB-231
# Outline: as §1
# T1 sequence (P50750 whole entry): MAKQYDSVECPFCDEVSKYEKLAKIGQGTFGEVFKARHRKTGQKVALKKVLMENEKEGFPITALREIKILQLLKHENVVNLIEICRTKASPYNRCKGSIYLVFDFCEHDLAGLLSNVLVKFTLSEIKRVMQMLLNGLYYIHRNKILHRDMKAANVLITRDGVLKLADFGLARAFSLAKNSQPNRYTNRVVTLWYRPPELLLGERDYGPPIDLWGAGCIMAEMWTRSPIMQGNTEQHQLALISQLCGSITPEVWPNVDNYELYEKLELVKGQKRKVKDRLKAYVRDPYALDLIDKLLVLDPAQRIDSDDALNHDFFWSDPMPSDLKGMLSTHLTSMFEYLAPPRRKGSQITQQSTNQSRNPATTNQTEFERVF
Structure (SMILES),Enzyme degradation CDK9 (% remaining) @ 0.1 μM (CDK9),Enzyme degradation CDK9 (% remaining) @ 1 μM (CDK9),Enzyme degradation CDK9 (% remaining) @ 10 μM (CDK9),Enzyme degradation CDK2 (% remaining) @ 0.1 μM (CDK2),Enzyme degradation CDK2 (% remaining) @ 1 μM (CDK2),Enzyme degradation CDK2 (% remaining) @ 10 μM (CDK2)
"O=C1CC[C@H](N2C(=O)c3cccc(OCC(=O)N4CCC(OCCN5CCN(c6ccc(Nc7ncnc8c7ncn8C7CC(NC(=O)Cc8ccccc8)C7)cc6)CC5)CC4)c3C2=O)C(=O)N1 (some centres unmarked) [Compound 246, N-((1s,3s)-3-(6-((4-(4-(2-((1-(2-((2-(2,6-dioxopiperidin-3-yl)-1,3-dioxoisoindolin-4-yl)oxy)acetyl)piperidin-4-yl)oxy)ethyl)piperazin-1-yl)phenyl)amino)-9H-purin-9-yl)cyclobutyl)-2-phenylacetamide]",80%,30%,0%,60%,40%,40%
"O=C1CC[C@@H](c2ccc(OCC(=O)N3CCC(OCCN4CCN(c5ccc(Nc6ncnc7c6ncn7C6CC(NC(=O)Cc7ccccc7)C6)cc5)CC4)CC3)cc2)C(=O)N1 (some centres unmarked) [Compound 250, N-((1s,3s)-3-(6-((4-(4-(2-((1-(2-(4-(2,6-dioxopiperidin-3-yl)phenoxy)acetyl)piperidin-4-yl)oxy)ethyl)piperazin-1-yl)phenyl)amino)-9H-purin-9-yl)cyclobutyl)-2-phenylacetamide]",40%,10%,0%,60%,40%,30%
"O=C1CC[C@@H](c2cccc(OCC(=O)N3CCC(OCCN4CCN(c5ccc(Nc6ncnc7c6ncn7C6CC(NC(=O)Cc7ccccc7)C6)cc5)CC4)CC3)c2)C(=O)N1 (some centres unmarked) [Compound 251, N-((1s,3s)-3-(6-((4-(4-(2-((1-(2-(3-(2,6-dioxopiperidin-3-yl)phenoxy)acetyl)piperidin-4-yl)oxy)ethyl)piperazin-1-yl)phenyl)amino)-9H-purin-9-yl)cyclobutyl)-2-phenylacetamide]",30%,0%,0%,0/0/0%,0/0/0%,0/0/0%
"O=C1CCC(N2C(=O)c3ccc(N4CCC(OCCN5CCN(c6ccc(Nc7ncnc8c7ncn8[C@H]7C[C@@H](NC(=O)Cc8ccccc8)C7)cc6)CC5)CC4)cc3C2=O)C(=O)N1 (some centres unmarked) [Compound 252, N-((1s,3s)-3-(6-((4-(4-(2-((1-(2-(2,6-dioxopiperidin-3-yl)-1,3-dioxoisoindolin-5-yl)piperidin-4-yl)oxy)ethyl)piperazin-1-yl)phenyl)amino)-9H-purin-9-yl)cyclobutyl)-2-phenylacetamide]",60/60/60%,60/60/60%,60/60/60%,30%,30%,50%
"COc1ccc(C(=O)N2CCC(CCCN3CCN(c4ccc(Nc5ncnc6c5ncn6[C@H]5C[C@@H](NC(=O)Cc6ccccc6)C5)cc4)CC3)CC2)cc1N1CCC(=O)NC1=O [Compound 257, N-((1s,3s)-3-(6-((4-(4-(3-(1-(3-(2,4-dioxotetrahydropyrimidin-1(2H)-yl)-4-methoxybenzoyl)piperidin-4-yl)propyl)piperazin-1-yl)phenyl)amino)-9H-purin-9-yl)cyclobutyl)-2-phenylacetamide]",80%,50%,50%,0%,20%,20%
"O=C1CC[C@@H](c2ccc(OCC(=O)N3CCC(CCCN4CCN(c5ccc(Nc6ncnc7c6ncn7[C@H]6C[C@@H](NC(=O)Cc7ccccc7)C6)cc5)CC4)CC3)cc2)C(=O)N1 [Compound 258, N-((1s,3s)-3-(6-((4-(4-(3-(1-(2-(4-(2,6-dioxopiperidin-3-yl)phenoxy)acetyl)piperidin-4-yl)propyl)piperazin-1-yl)phenyl)amino)-9H-purin-9-yl)cyclobutyl)-2-phenylacetamide]",20%,0%,0%,20/20/20%,20/20/20%,20/20/20%
"O=C1CCC(N2C(=O)c3cccc(N4CCC(OCCN5CCN(c6ccc(Nc7ncnc8c7ncn8[C@H]7C[C@@H](NC(=O)Cc8ccccc8)C7)cc6)CC5)CC4)c3C2=O)C(=O)N1 (some centres unmarked) [Compound 260, N-((1s,3s)-3-(6-((4-(4-(2-((1-(2-(2,6-dioxopiperidin-3-yl)-1,3-dioxoisoindolin-4-yl)piperidin-4-yl)oxy)ethyl)piperazin-1-yl)phenyl)amino)-9H-purin-9-yl)cyclobutyl)-2-phenylacetamide]",60/60/60%,60/60/60%,60/60/60%,20/20/20%,20/20/20%,20/20/20%
"O=C1CC[C@H](N2C(=O)c3cccc(N4CCC(CCCN5CCN(c6ccc(Nc7ncnc8c7ncn8[C@H]7C[C@@H](NC(=O)Cc8ccccc8)C7)cc6)CC5)CC4)c3C2=O)C(=O)N1 [Compound 261, N-((1s,3s)-3-(6-((4-(4-(3-(1-(2-(2,6-dioxopiperidin-3-yl)-1,3-dioxoisoindolin-4-yl)piperidin-4-yl)propyl)piperazin-1-yl)phenyl)amino)-9H-purin-9-yl)cyclobutyl)-2-phenylacetamide]",60%,30%,20%,70%,90%,100%

# Next, values leading:
Enzyme degradation CDK9 (% remaining) @ 0.1 μM (CDK9),Enzyme degradation CDK9 (% remaining) @ 1 μM (CDK9),Enzyme degradation CDK9 (% remaining) @ 10 μM (CDK9),Enzyme degradation CDK2 (% remaining) @ 0.1 μM (CDK2),Enzyme degradation CDK2 (% remaining) @ 1 μM (CDK2),Enzyme degradation CDK2 (% remaining) @ 10 μM (CDK2),Structure (SMILES)
50%,20%,0%,50/50/50%,50/50/50%,50/50/50%,"O=C1CC[C@H](N2C(=O)c3ccc(NCC(=O)N4CCC(OCCN5CCN(c6ccc(Nc7ncnc8c7ncn8[C@H]7C[C@@H](NC(=O)Cc8ccccc8)C7)cc6)CC5)CC4)cc3C2=O)C(=O)N1 [Compound 248, N-((1s,3s)-3-(6-((4-(4-(2-((1-((2-(2,6-dioxopiperidin-3-yl)-1,3-dioxoisoindolin-5-yl)glycyl)piperidin-4-yl)oxy)ethyl)piperazin-1-yl)phenyl)amino)-9H-purin-9-yl)cyclobutyl)-2-phenylacetamide]"
0/0/0%,0/0/0%,0/0/0%,20/—/20%,–,20/—/20%,"O=C1CC[C@H](N2C(=O)c3cccc(NCC(=O)N4CCC(CCCN5CCN(c6ccc(Nc7ncnc8c7ncn8[C@H]7C[C@@H](NC(=O)Cc8ccccc8)C7)cc6)CC5)CC4)c3C2=O)C(=O)N1 [Compound 253, N-((1s,3s)-3-(6-((4-(4-(3-(1-((2-(2,6-dioxopiperidin-3-yl)-1,3-dioxoisoindolin-4-yl)glycyl)piperidin-4-yl)propyl)piperazin-1-yl)phenyl)amino)-9H-purin-9-yl)cyclobutyl)-2-phenylacetamide]"
50%,20%,0%,50%,30%,20%,"O=C1CCC(N2C(=O)c3cccc(OCC(=O)N4CCC(CCCN5CCN(c6ccc(Nc7ncnc8c7ncn8[C@H]7C[C@@H](NC(=O)Cc8ccccc8)C7)cc6)CC5)CC4)c3C2=O)C(=O)N1 (some centres unmarked) [Compound 254, N-((1s,3s)-3-(6-((4-(4-(3-(1-(2-((2-(2,6-dioxopiperidin-3-yl)-1,3-dioxoisoindolin-4-yl)oxy)acetyl)piperidin-4-yl)propyl)piperazin-1-yl)phenyl)amino)-9H-purin-9-yl)cyclobutyl)-2-phenylacetamide]"
60%,10%,0%,40%,30%,30%,"O=C1CC[C@H](N2C(=O)c3ccc(OCC(=O)N4CCC(CCCN5CCN(c6ccc(Nc7ncnc8c7ncn8[C@H]7C[C@@H](NC(=O)Cc8ccccc8)C7)cc6)CC5)CC4)cc3C2=O)C(=O)N1 [Compound 256, N-((1s,3s)-3-(6-((4-(4-(3-(1-(2-((2-(2,6-dioxopiperidin-3-yl)-1,3-dioxoisoindolin-5-yl)oxy)acetyl)piperidin-4-yl)propyl)piperazin-1-yl)phenyl)amino)-9H-purin-9-yl)cyclobutyl)-2-phenylacetamide]"
0/0/0%,0/0/0%,0/0/0%,0/0/0%,0/0/0%,0/0/0%,"O=C1CC[C@@H](c2cccc(OCC(=O)N3CCC(CCCN4CCN(c5ccc(Nc6ncnc7c6ncn7C6CC(NC(=O)Cc7ccccc7)C6)cc5)CC4)CC3)c2)C(=O)N1 (some centres unmarked) [Compound 259, N-((1s,3s)-3-(6-((4-(4-(3-(1-(2-(3-(2,6-dioxopiperidin-3-yl)phenoxy)acetyl)piperidin-4-yl)propyl)piperazin-1-yl)phenyl)amino)-9H-purin-9-yl)cyclobutyl)-2-phenylacetamide]"
